Data as given in patent publication US11452708B2, “Discovery of potent [alpha]-glucosidase inhibitors from Heterophragma adenophyllum” (KING ABDULAZIZ UNIVERSITY, priority 2021, dated 2022).
“And” between values parts separate entries of the source, which are not always exact repeats. Identical values can stand only once. Like-named read-outs stand apart in the source and are kept apart here.

Molecular target: α-glucosidase (E.C.3.2.1.20) (Saccharomyces cerevisiae, UniProt P53341)
Assay: α-glucosidase inhibitory activity (p-nitrophenyl-α-d-glucopyranoside substrate, absorbance at 400 nm)
Format: biochemical
Conditions: in vitro; for IC50: 0.1 M phosphate buffer, pH 6.8, 37° C., standard acarbose, unit inferred
Procedure: . The substrate (0.7 Mm, p-nitrophenyl-α-d-glucopyranoside) was then mixed in and the difference in absorbance at 400 nm was recorded using a spectrophotometer for 30 minutes. The tested extracts and compound 1 were substituted with DMSO-d6 (7.5%) in the control. The standard drug used in this experiment was acarbose. The percentage activity was calculated by using the following formula.

[1] = read-out: IC50, α-glucosidase inhibition

Chain of α-glucosidase (E.C.3.2.1.20) (P53341 whole entry): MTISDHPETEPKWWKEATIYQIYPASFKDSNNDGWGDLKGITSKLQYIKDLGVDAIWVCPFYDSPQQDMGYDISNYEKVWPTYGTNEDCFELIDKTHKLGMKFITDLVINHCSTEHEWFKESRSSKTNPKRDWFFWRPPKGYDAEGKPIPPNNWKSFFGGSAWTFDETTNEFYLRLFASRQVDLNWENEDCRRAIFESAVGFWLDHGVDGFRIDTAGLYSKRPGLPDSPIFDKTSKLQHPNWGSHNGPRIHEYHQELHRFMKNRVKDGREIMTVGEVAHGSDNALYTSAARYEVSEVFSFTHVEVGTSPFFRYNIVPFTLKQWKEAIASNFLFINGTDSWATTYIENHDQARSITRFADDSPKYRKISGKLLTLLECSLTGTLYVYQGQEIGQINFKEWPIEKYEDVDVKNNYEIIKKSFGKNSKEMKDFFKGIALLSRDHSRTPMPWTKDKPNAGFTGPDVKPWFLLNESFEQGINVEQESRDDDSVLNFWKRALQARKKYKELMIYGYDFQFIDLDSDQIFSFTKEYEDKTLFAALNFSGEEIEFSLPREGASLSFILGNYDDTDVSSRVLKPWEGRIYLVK

Row | Molecule | IC50 [1] | further results
1 | CC(C)=CCC1=C(O)C(=O)c2ccccc2C1=O [Compound 1, lapachol] | 33.1 ± 2.41 µM | 
2 | COC(=O)C1(O)c2ccccc2C(=O)C1(O)CC=C(C)C (stereo not shown) [Compound 3, Methyl 1,2-dihydroxy-2-(3-methylbut-2-enyl)-3-oxo-2,3-dihydroxo-1H-indene-1-carboxylate] |  | IC50 (IC50, α-glucosidase inhibition): 78.3 µM and 117 µM
3 | CC1(C)CCC2=C(O1)C(=O)c1ccccc1C2=O [Compound 4, α-lapachone] | 117 µM and 78.3 µM | 
4 | peshawaraquinone [Compound 2] |  | α-glucosidase inhibitory activity (in words) (comparison among the tested compounds 1-4): least active
